Here are results for ten compounds from ChEMBL document CHEMBL1129927, “Further evidence for a dopamine reuptake pharmacophore. The effect of N-methylation on Threo-methylphenidate and its analogs” (Bioorg Med Chem Lett, 1997).

Experiment [1] concerns the target Sodium-dependent dopamine transporter (Rattus norvegicus, UniProt P23977). Put plainly: The compound was tested for its affinity at the rat striatal dopamine transporter by the displacement of [3H]WIN-35428. (Loss of bound radioactivity is the signal in a displacement assay; it reports binding, not function.)
The nature of experiment [2]: Hill coefficient was determined.
Experiment [3] can be described thus: Ratio of inhibitory concentration of compound 5d to 6d.

Sequence of Sodium-dependent dopamine transporter (P23977 whole entry): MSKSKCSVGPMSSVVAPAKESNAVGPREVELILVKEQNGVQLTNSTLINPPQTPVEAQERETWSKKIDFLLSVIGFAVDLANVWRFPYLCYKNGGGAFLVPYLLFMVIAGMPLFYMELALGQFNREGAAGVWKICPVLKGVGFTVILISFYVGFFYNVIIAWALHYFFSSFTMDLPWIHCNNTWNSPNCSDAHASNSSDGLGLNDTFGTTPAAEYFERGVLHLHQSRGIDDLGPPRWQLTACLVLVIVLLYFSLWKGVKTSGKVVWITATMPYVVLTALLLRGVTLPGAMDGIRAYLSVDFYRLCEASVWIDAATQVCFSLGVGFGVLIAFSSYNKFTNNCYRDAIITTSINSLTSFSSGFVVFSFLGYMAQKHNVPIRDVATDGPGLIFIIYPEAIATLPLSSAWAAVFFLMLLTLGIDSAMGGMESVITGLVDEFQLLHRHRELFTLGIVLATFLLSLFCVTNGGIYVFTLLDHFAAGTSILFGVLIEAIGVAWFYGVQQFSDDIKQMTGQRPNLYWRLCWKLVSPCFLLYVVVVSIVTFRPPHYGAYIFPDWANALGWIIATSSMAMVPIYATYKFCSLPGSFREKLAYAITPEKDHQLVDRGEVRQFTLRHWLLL

With `COC(=O)[C@H](c1ccc(C)cc1)[C@H]1CCCCN1C`, the 50% inhibitory concentration (IC50) (in general, the concentration needed to halve the response being measured) in experiment [1] was found to be 139 nM. Moreover, in experiment [2], the Hill coefficient (commonly a measure of the steepness of the concentration-response curve) was 1.03.
The matching figures for `COC(=O)[C@H](c1ccc(O)cc1)[C@H]1CCCCN1`: 98 nM and 1.07.
In experiment [2], `COC(=O)[C@H](c1ccccc1)[C@H]1CCCCN1` displayed a Hill coefficient of 0.9.
In the case of `COC(=O)[C@H](c1ccc(O)cc1)[C@H]1CCCCN1C`, the IC50 in experiment [1] is 1220 nM. This compound also came in with a Hill coefficient in experiment [2] of 1.06.
Regarding `COC(=O)[C@H](c1ccccc1)[C@H]1CCCCN1C`, the 50% inhibitory concentration (IC50) in experiment [1] turned out to be 500 nM. The compound further yielded a Hill coefficient in experiment [2] of 1.
For `COC(=O)[C@H](c1cccc(C)c1)[C@H]1CCCCN1`, in experiment [1], the concentration for half-maximal inhibition (IC50) came to 21.4 nM. For the same compound, in experiment [2], the Hill coefficient was found to be 1.01.
Take `COC(=O)[C@H](c1cccc(Cl)c1)C1CCCCN1` (stereo not given in full): in experiment [1], the IC50 is 5.1 nM. For the same compound, the Hill coefficient in experiment [2] is 0.95.
Consider `COC(=O)[C@H](c1ccc(C)cc1)C1CCCCN1` (stereo not given in full), for which the half-maximal inhibitory concentration (IC50) in experiment [1] turned out to be 33 nM. In experiment [2], this compound returned a Hill coefficient of 1.05. The Ratio in experiment [3] was determined as 4.2.
In turn, `COC(=O)[C@H](c1cccc(Cl)c1)[C@H]1CCCCN1C` yielded an IC50 in experiment [1] of 161 nM. Further, the Hill coefficient in experiment [2] worked out at 0.96.
Regarding `COC(=O)[C@H](c1cccc(C)c1)[C@H]1CCCCN1C`, the concentration for half-maximal inhibition (IC50) in experiment [1] was found to be 108 nM. In experiment [2], this compound had a Hill coefficient of 1.
